Results reported in US4196216A, “Novel benzylidene amini-oxyalkyl carboxylic acids and carboxylic acid derivatives” (U.S. Philips Corporation, priority 1968, dated 1980).

How the values were obtained:
[1] = known compound, background, cited from earlier work
[2] = acute toxicity (LD50 table, level of toxicity); conditions: in vivo
Description: This low level of toxicity appears from the following table: […]

Rhine virus = assay: activity against Rhine virus
[3] = anti-inflammatory and analgetic activities, general statement; format: in vivo; conditions: test not specified
[4] = route of administration: par(enteral)
[5] = po, route of administration: or(al)

| Compound | LD50 at 24 h [2, 4] [mg/kg] | LD50 at 24 h [2, 5] [mg/kg] | further results |
| --- | --- | --- | --- |
| COc1ccc2c(c1)c(CC(=O)O)cn2-c1ccc(Cl)cc1 [(N-p.chlorophenyl-5-methoxy indolyl-3) acetic acid] | – | – | potency [1]: highly potent; toxicity level [1]: high toxicity level; therapeutic level ([1]; due to high toxicity): quite low |
| CC(=NOCC(=O)O)c1ccc(Br)cc1 [Br H H CH3 CH2 OH] | > 100 | – | – |
| CC(=NOCC(N)=O)c1ccc(Cl)c(Cl)c1 [C1 C1 H CH3 CH2 NH2, [(α-methyl-3,4-dichlorobenzylidene amino)oxy] acetamide] | – | ~1000 | activity against Rhine virus (Rhine virus): interesting activity |
| CC(=NOCC(=O)O)c1ccc(Cl)c(Cl)c1 [C1 C1 H CH3 CH2 OH, [(α-methyl-3,4-dichlorobenzylene amino)oxy] acetic acid] | > 320 | – | – |
| CC(=NOCC(=O)O)c1ccc(Cl)cc1Cl [C1 H C1 CH3 CH2 OH, [(α-methyl-2,4-dichlorobenzylidene amino)oxy] acetic acid] | > 320 | – | activity against Rhine virus (Rhine virus): interesting activity |
| CC(=NOCCC(N)=O)c1ccc(Cl)cc1 [C1 H H CH3 (CH2)2 NH2, 3-[(α-methyl-4-chlorobenzylideneamino)oxy] propionamide] | – | > 1000 | – |
| CC(=NOCCC(=O)O)c1ccc(Cl)cc1 [C1 H H CH3 (CH2)2 OH, 3-[(α-methyl-4-chlorobenzylideneamino)oxy] propionic acid] | > 100 | – | – |
| CC(=NOCCCC(=O)O)c1ccc(Cl)cc1 [C1 H H CH3 (CH2)3 OH, 4-[(α-methyl-4-chlorobenzylideneamino)oxy] butyric acid] | > 320 | – | activity against Rhine virus (Rhine virus): interesting activity |
| CC(=NOCC(=O)N(C)C)c1ccc(Cl)cc1 [C1 H H CH3 CH2 (CH3)2 N, [(α-methyl-4-chlorobenzylidene amino)oxy]-N,N-dimethyl acetamide] | – | > 1000 | – |
| CC(=NOCC(N)=O)c1ccc(Cl)cc1 [C1 H H CH3 CH2 NH2, [(α-methyl-4-chlorobenzylidene amino)oxy]acetamide] | – | > 1000 | LD50 at 48 h [2, 5]: > 1000 mg/kg; activities [3]: particularly strong activities; activity against Rhine virus (Rhine virus): interesting activity |
| CNC(=O)CON=C(C)c1ccc(Cl)cc1 [C1 H H CH3 CH2 NHCH3, [(α-methyl-4-chlorobenzylidene amino)oxy]-N-methyl acetamide] | – | > 1000 | – |
| CC(=NOCC(=O)NN)c1ccc(Cl)cc1 [C1 H H CH3 CH2 NHNH2, [(α-methyl-4-chlorobenzylidene amino)oxy] acet hydrazide] | – | ~1000 | activity against Rhine virus (Rhine virus): interesting activity |
| CC(=NOCC(=O)OCc1ccccc1)c1ccc(Cl)cc1 [C1 H H CH3 CH2 OCH2 C6 H5] | – | > 1000 | – |
| COC(=O)CON=C(C)c1ccc(Cl)cc1 [C1 H H CH3 CH2 OCH3, [(α-methyl-4-chlorobenzylidene amino)oxy] acetic acid methyl ester] | – | > 1000 | LD50 at 48 h [2, 5]: > 1000 mg/kg; activities [3]: particularly strong activities |
| CC(=NOCC(=O)OC(C)C)c1ccc(Cl)cc1 [C1 H H CH3 CH2 OCH(CH3)2] | – | > 1000 | – |
| CC(=NOCC(=O)O)c1ccc(Cl)cc1 [C1 H H CH3 CH2 OH, [(α-methyl-4-chlorobenzylidene amino)oxy] acetic acid] | – | > 1000 | LD50 at 48 h [2, 5]: > 1000 mg/kg; activities [3]: particularly strong activities |
| CCCCCCCCOC(=O)CON=C(C)c1ccc(Cl)cc1 [C1 H H CH3 CH2 OnC8 H17] | – | > 1000 | – |
| O=C(O)CON=Cc1ccc(Cl)cc1 [C1 H H H CH2 OH, [(4-chlorobenzylidene amino)oxy] acetic acid] | > 320 | – | – |
| CC(=NOCC(=O)O)c1ccc(C)cc1 [CH3 H H CH3 CH2 OH] | > 320 | – | – |
| CC(=NOCC(=O)O)c1ccc(S(C)(=O)=O)cc1 [CH3 SO2 H H CH3 CH2 OH] | > 320 | – | – |
| CC(=NOCC(=O)O)c1cccc(Cl)c1 [H C1 H CH3 CH2 OH] | > 320 | – | – |
| CCCCNC(=O)CON=C(C)c1ccc(Cl)cc1 [N-n.butyl-[(α-methyl-4-chlorobenzylideneamino)oxy] acetamide] | – | – | activity against Rhine virus (Rhine virus): interesting activity |
